Paper PMC7667655, “Targeted Covalent Inhibition of Plasmodium FK506 Binding Protein 35” (ACS Medicinal Chemistry Letters, 2020)
Where two headings read alike, the source gives them in different places. Values belong to the compound of their own block, whether it stands above or below them.

Assays:
[1] = test system: Plasmodium cultured parasites; conditions: Figure 1; read-out: IC50 in blood-stage antiplasmodium assays; cited from earlier work
FKBP35 = target: T1, FKBP35 (Plasmodium falciparum, UniProt Q8I4V8); assay: Mass spec of FKBP35 incubated with D44 analogs; format: biochemical
T1 construct: FKBP35 Q5 -A128; 6His-SUMO (N, cleaved yes); made in house; host or cells: E. coli BL21 DE3
Experimental: Prior to DSC experiments 400 µL of the reaction mixture was saved f or mass spectrometry analysis. For intact mass analysis, 100 µL of the reaction mixture was diluted to 0.05 mg/mL and injected onto a ZORBAX StableBond 300 C8 HPLC column [2.1 x 100 mm, 3.5 µm (Agilent)] on an Agilent HPLC binary pump system. Initial m obile phase conditions were 15% acetonitrile/85% water, both containing 0.1% formic acid. Protein was desalted for 2 minutes and eluted from the column with a gradient of 15% to 75% acetonitrile over 10 min. Intact mass measurement was performed on a Q Exa ctive mass spectrometer with an ESI source (Thermo Scientific). Source parameters: spray voltage, 3500 V; capillary temperature, 340°C; sheath gas, 35; auxiliary gas, 5; (gas flows in arbitrary units of the ESI source). MS detection was performed using a Full MS scan acquisition method, scanning over the range 800 -2100 m/z. BioPharma Finder v 3.0 (Thermo Fisher Scientific) was used for data acquisition and analysis. DSC and mass spectrometry experiments were performed in parallel.
For chymotrypsin digestion , 20 µL of the reaction mixture was added to 20 µL of fresh denaturing solution (0.1 M urea, 0.1 M NaCl, adjusted to 10 ml with 50 mM Tris Buffer pH 8.0). Then 10 µL of 10 mM TCEP was added to the mixture, which was then incubated at 37 °C for 60 minutes. To prevent modification of free thiol groups in FKBP proteins during digestion, 4 µL of 50 mM iodoacetamide (IAA, Sigma No. A3221) was added followed by incubation at room temperature in the dark for 30 minutes. After the incubation, the reaction mixture w as brought up to 200 µL with 140 µL of 10 mM Trizma pH 7.5. The peptide fragments were generated by adding chymotrypsin at a molar ratio of 1 chymotrypsin : 100 FKBP protein and incubated overnight at 37 °C. The reaction was quenched by adding 10 µL of form ic acid (~5% of total volume) followed by a few seconds of a vortex pulse.
Samples were analyzed using a Thermo Fisher Scientific Vanquish UHPLC connected to a Q Exactive HF mass spectrometer with a HESI source. Source parameters were as follows: spray voltage, 3500 V; capillary temperature, 300 °C; sheath gas flow, 45; auxiliary gas flow; 10; sweep gas flow, 1; (gas flows in arbitrary units of the HESI source). Digested samples were injected onto an ACQUITY UPLC BEH C18 Column [130Å, 1.7 µm, 2.1 mm X 50 mm (Waters)] held at 45 °C and desalted for 30 s with 5% acetonitrile/95% water, both containing 0.1% formic acid. Peptides were separated using a 5% to 65% acetonitrile gradient over 6.5 min. MS detection was performed using a Full MS/ddMS2 (Top 5) acquisi tion method, scanning over the range 300 -1800 m/z. […]
DSC thermograms were recorded in MicroCal DSC from Malvern with an autosampler. […]

[2] = target: T2, FBD35 (PfFKBP35 binding domain) (Plasmodium falciparum, UniProt Q8I4V8); assay: Fluorescence polarization competition, FBD35
T2 construct: FKBP35 Q5 -A128; 6His-SUMO (N, cleaved yes); made in house; host or cells: E. coli BL21 DE3

FKBP12 [3] = target: T3, FKBP12 (Homo sapiens, UniProt P62942); assay: Fluorescence polarization competition, FKBP12; format: binding
T3 construct: 6His-SUMO (N, cleaved yes); made in house; host or cells: E. coli (identical protocol to FBD35, BL21 DE3)

[4] = target: T2, FBD35 (PfFKBP35 binding domain); assay: Differential scanning calorimetry, FBD35; conditions: read-out: FBD35 ΔTM
FKBP12 [5] = target: T3, FKBP12; assay: Differential scanning calorimetry, FKBP12; format: binding; conditions: compound 40 µM
[6] = target: T4, nLuc-tagged full length PfFKBP35 (Plasmodium falciparum, UniProt Q8I4V8); assay: NanoBRET cellular target engagement, nLuc-FKBP35; format: cell-based
T4 construct: nanoluciferase-tagged (nLuc) full length PfFKBP35 or nLuc-tagged FKBP12; expressed in transfected cells

nLuc-tagged FKBP12 = target: T5, nLuc-tagged FKBP12 (Homo sapiens, UniProt P62942); assay: NanoBRET cellular target engagement, nLuc-FKBP12; format: cell-based
T5 construct: full length Plasmodium falciparum FKBP35 and human FKBP12 DNA were; expressed in transfected cells

[7] = test system: NF54 P. falciparum parasites; assay: P. falciparum strain NF54 growth-inhibition assay; format: cell-based; conditions: Plasmodium falciparum; luciferase reporter NF54 line, 72 h
Experimental: Figure 6 P. falciparum strain NF54 growth-inhibition assay. […] Proliferation was measured by luminescence after a complete life-cycle and normalized to DMSO (100%) and chloroquine (100 nM, 0%). (B) Structural differences between synthetic ligands and compound IC50s (μM).
Substrate and Extracellular NanoLuc® Inhibitor (Promega, cat. N2160) were diluted at 1:166 and 1:500, respectively, in Opti -MEM I Reduced Serum Media. 25 µL of this solution was added to each well and plate was read immediately using an EnVision Multimode Plate Reader (PerkinElmer). The BRET ratio was calculated using the following formula:
BRET ratio = acceptorsample – acceptorno tracer control donorsample donorno tracer control
NanoBRET Target Engagement Assay (384-well)
HEK293T cells stably expressing either nLuc-FKBP12 or nLuc-FKBP35 were plated at 0.2×10^6 cells/mL in white, clear -bottom 384-well plates (Sigma Aldrich) in Opti -MEM I Reduced Serum Media (ThermoFisher Scientific) using a Mutidrop Combi Reagent Dispenser (ThermoFisher Scientific). Cells were incubated overnight at 37 °C, 5% CO 2. Using a Tecan D300e, the Rap-Gly-BDP tracer was added to cells to 1 µM. Plates were shaken at 700 RPM on an orbital plate shaker and incubated at 37 °C, 5% CO 2 for 10 minutes. Test compounds were added at the indicated concentrations using a Tecan D300e. Plates were shaken at 700 RPM on an orbital plate shaker and incubated at 37 °C, 5% CO 2 for 2 hours. NanoBRET Nano -Glo Substrate and Extracellular NanoLuc® Inhibitor (Promega, cat. N2160) were diluted at 1:166 and 1:500, respectively, in Opti-MEM I Reduced Serum Media. 10 µL of this solution was added to each well and plate was read immediately using an EnVision Multimode Plate Reader (PerkinElmer). The BRET ratio was calculated using the above formula.
Parasite Culture and Inhibition
NF54 P. falciparum parasites constitutively expressing Renilla luciferase (RLuc) and Blasticidin-S deaminase under the PfHsp86 5’ and PfHRP2 3‘ regulatory sequences integrated in the cg6 chromosomal locus 4 were maintained continuous ly in media consisting of human erythrocytes at 2% haematocrit (O+) resuspended in RPMI 1640 (Gibco® 31800022) supplemented with 5% Albumax (Gibco® 11021045; complete medium) and 2.5 µg/mL of Blasticidin (RPI Corp B12150-0.1) in a gas mixture consisting of 5% CO2, 1% O2, and 94% N2 at 37 °C (Trager and Jensen 2005).
Parasitemia was determined every 48 h through microscopic examination of thin blood smears fixed in methanol, stained with 10% Giemsa solution, and sub-cultured to 0.5-1% parasitaemia.
Compound susceptibility assays
(§1) In 96-well round-bottom plates, sorbitol -synchronized cultures of ring-stage NF54 P. falciparum parasites were established in triplicate and treated with varying concentrations of the inhibitors (25-0.0038 μM) serially diluted in complete medium. Parasite proliferation rates were analyzed after 72 h using the Renilla-Glo Luciferase Assay, and luminescence was measured using the GloMax® Discover Microplate Reader. EC 50 values were obtained from corrected dose-response curves using GraphPad Prism (version 5; GraphPad Software). Data represent the mean % luminescence relative to 5% DMSO-treated (vehicle, 100% growth) and 100 nM chloroquine-treated (no growth) controls.
(§2) In black, clear-bottom 96-well plates (No. 3904 Corning Life Sciences), HEK293T cells were plated at 2x10^5 cells/mL in DMEM high glucose, pyruvate media (ThermoFisher Scientific, cat. 11995073) supplemented with 10% FBS and 1% pen -strep (100 μL final volume). Cells were incubated overnight at 37°C, 5% CO2. Using a Tecan D300e digital dispenser, cells were dosed in triplicate […]
concentration, 100 mM stock in DMSO) and Carfilzomib (10 µM to 4.6 nM final concentration, 10 mM stock in DMSO) normalizing DMSO to 0.25%. Cells were then incubated at 37 °C, 5% CO2 for 72 hours. Following incubation, cells were treated with 70 µL CellTiter-Glo® Luminescent Cell […]

[8] = Plasma stability assay, human; format: in vitro ADME; conditions: percent remaining, 1 µM, 37 °C, 5 hours
Experimental: as §1, §2
(§3) concentration, 100 mM stock in DMSO) and Carfilzomib (10 µM to 4.6 nM final concentration, 10 mM stock in DMSO) normalizing DMSO to 0.25%. Cells were then incubated at 37 °C, 5% CO2 for 72 hours. Following incubation, cells were treated with 70 µL CellTiter-Glo® Luminescent Cell Viability Assay Reagent (Promega, cat. G7570) and incubated in the dark at room temperature for 30 minutes. Plates were read using an EnVision Multimode Plate Reader (PerkinElmer). Cell viability data was normalized to DMSO controls and analyzed in GraphPad Prism 8 by fitting the data to “[Inhibitor] vs. normalized response – variable slope” model to obtain the curves.
(§4) Each compound was prepared in duplicate at 1 µM final concentration (0.2% DMSO) in human or mouse plasma (Aldrich). Samples were incubated at 37 °C for 5 hours with mixing at 350 rpm on an orbital shaker. Aliquots of each sample were taken at time zero and following 5 hours. Each sample was quenched by adding acetonitrile in a 3:1 ratio and further diluting with 50 µl of PBS.
(§5) After quenching, samples were centrifuged to pellet precipitated partic ulates and an aliquot of supernatant was diluted 1:1 with water. The resulting solution was analyzed by UPLC -MS/MS with compounds detected by MRM detection on a triple quadrupole mass spectrometer. The ratio of compound peak areas at 0 and 5 hours were use d to calculate the percent remaining.

[9] = Plasma stability assay, mouse; format: in vitro ADME; conditions: percent remaining, 1 µM, 37 °C, 5 hours
Experimental: as §1, §2, §3, §4, §5

[10] = Cell viability assay (CellTiter-Glo); format: cell-based; conditions: human
Experimental: as §1, §2, §3
Each compound was prepared in duplicate at 1 µM final concentration (0.2% DMSO) in human or mouse plasma (Aldrich). […]
After quenching, samples were centrifuged to pellet precipitated partic ulates and an aliquot of supernatant was diluted 1:1 with water. The resulting solution was analyzed by UPLC -MS/MS with compounds detected by MRM detection on a triple quadrupole mass spectrometer. […]

T1 sequence (Q8I4V8 5-128): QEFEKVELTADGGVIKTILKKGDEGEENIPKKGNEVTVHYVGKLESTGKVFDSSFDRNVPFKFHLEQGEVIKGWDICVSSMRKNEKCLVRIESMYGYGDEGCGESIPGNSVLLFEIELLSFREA
T3 sequence (P62942 whole entry): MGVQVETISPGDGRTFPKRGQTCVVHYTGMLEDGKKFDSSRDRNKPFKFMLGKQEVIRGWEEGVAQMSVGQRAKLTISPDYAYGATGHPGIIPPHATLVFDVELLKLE
T2 sequence (Q8I4V8 5-128): as the sequence (Q8I4V8 5-128) above
T5 sequence (P62942 whole entry): as the sequence (P62942 whole entry) above
T4 sequence (Q8I4V8 whole entry): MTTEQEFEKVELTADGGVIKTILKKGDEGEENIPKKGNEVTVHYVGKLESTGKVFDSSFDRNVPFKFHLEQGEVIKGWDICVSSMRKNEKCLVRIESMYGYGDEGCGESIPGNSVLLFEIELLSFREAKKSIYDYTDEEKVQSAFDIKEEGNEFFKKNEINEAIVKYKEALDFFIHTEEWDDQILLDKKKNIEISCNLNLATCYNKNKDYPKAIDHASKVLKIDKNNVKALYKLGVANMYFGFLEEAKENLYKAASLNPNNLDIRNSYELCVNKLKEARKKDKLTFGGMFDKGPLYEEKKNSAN

SMILES: CC[C@H]1CN(Cc2ccccn2)C(=O)[C@@H]2CCC[C@H]1N2S(=O)(=O)c1cc(Cl)cc(Cl)c1 [[4.3.1]-ABS]
IC50 [1]: 2300 nM

% Abundance of modified FKBP35 (FKBP35; incubation temp 37 °C): 37.0% | % Abundance of modified FKBP35 (FKBP35; incubation temp RT): 17.1%
SMILES: C=CC(=O)NCc1ccc(NC(=O)CSc2nc3cccnc3[nH]2)cc1 [D44c]

SMILES: CCC(=O)OCC(C)(C)C(=O)C(=O)N1CCCC[C@H]1C(=O)O[C@H](CCc1ccc(OC)c(OC)c1)c1ccccc1 [2d]
IC50 [2]: 99 nM | IC50 (FKBP12 [3]): 43 nM | ΔTm at 40 µM [4]: 3 °C | ΔTm at 40 µM (FKBP12 [5]): 5.9 °C | IC50 [6]: 1310 nM | IC50 (nLuc-tagged FKBP12): 454 nM | IC50 [7]: 9900 nM | Plasma Stability (human) [8]: 1% | Plasma Stability (mouse) [9]: 0%

SMILES: CC(C)C[C@H](NC(=O)[C@H](CCc1ccccc1)NC(=O)CN1CCOCC1)C(=O)N[C@@H](Cc1ccccc1)C(=O)N[C@@H](CC(C)C)C(=O)[C@@]1(C)CO1 [carfilzomib]
IC50 at 72 h [10]: 15 nM

% Abundance of modified FKBP35 (FKBP35; incubation temp 37 °C): 4.1% | % Abundance of modified FKBP35 (FKBP35; incubation temp RT): 11.5%
SMILES: C=CC(=O)NCc1ccccc1NC(=O)CSc1nc2cccnc2[nH]1 [D44a]

SMILES: CO[C@H]1C[C@@H]2CC[C@@H](C)[C@@](O)(O2)C(=O)C(=O)N2CCCC[C@H]2C(=O)O[C@H]([C@H](C)C[C@@H]2CC[C@@H](O)[C@H](OC)C2)CC(=O)[C@H](C)/C=C(\C)[C@@H](O)[C@@H](OC)C(=O)[C@H](C)C[C@H](C)/C=C/C=C/C=C/1C [Rapamycin, reference compound]
IC50 [7]: 1100 nM | IC50 at 72 h ([10]; HEK293T cells, HEK293T, 72 hour treatment, read-out: IC50 cell viability): 63000 nM
